The structures appear in SMILES notation. Where only a bound is given, the exact number is not on record here.

The test system of one assay is M. tuberculosis H37Rv_DdnL49P_gfp. The format is cell-based, Mycobacterium tuberculosis. Particulars: in combination with pretomanid, unit inferred; read-out: average EC50 H37Rv_DdnL49P_gfp.
In the case of `CCOc1ccc2nc(NC(=O)[C@@H]3C4C=CC(C4)[C@@H]3C(=O)O)sc2c1` (stereo partly shown) [Example 7, 3-[(6-ethoxy-1,3-benzothiazol-2-yl)carbamoyl]bicyclo[2.2.1]hept-5-ene-2-carboxylic acid], the concentration for a half-maximal effect (EC50) (usually the midpoint of the concentration-response curve) stood at 1 µM.
On the same count and under the same terms, to `O=C(Nc1nc2ccc(Oc3ccc(F)cc3)cc2s1)[C@@H]1C2C=CC(C2)[C@@H]1C(=O)O` (stereo partly shown) [Example 21, 3-[[6-(4-fluorophenoxy)-1,3-benzothiazol-2-yl]carbamoyl]bicyclo[2.2.1]hept-5-ene-2-carboxylic acid] belongs 0.4 µM; to `O=C(Nc1nc2ccc(Oc3cc(C(F)(F)F)ccn3)cc2s1)[C@@H]1C2C=CC(C2)[C@@H]1C(=O)O` (stereo partly shown) [Example 27, 3-[[6-[[4-(trifluoromethyl)-2-pyridyl]oxy]-1,3-benzothiazol-2-yl]carbamoyl]bicyclo[2.2.1]hept-5-ene-2-carboxylic acid], 0.23 µM.
Still for that read-out and setting: next, `O=C(Nc1nc2ccc(Oc3ccnc(C(F)(F)F)c3)cc2s1)[C@@H]1C2C=CC(C2)[C@@H]1C(=O)O` (stereo partly shown) [Example 32, 3-[[6-[[2-(trifluoromethyl)-4-pyridyl]oxy]-1,3-benzothiazol-2-yl]carbamoyl]bicyclo[2.2.1]hept-5-ene-2-carboxylic acid]: 0.32 µM; `O=C1[C@@H]2[C@H](C(=O)N1c1nc3ccc(Oc4ccc(C(F)(F)F)cn4)cc3s1)[C@@H]1C=C[C@H]2C1` [Example 36, (1R,2S,6R,7S)-4-[6-[[5-(trifluoromethyl)-2-pyridyl]oxy]-1,3-benzothiazol-2-yl]-4-azatricyclo[5.2.1.02,6]dec-8-ene-3,5-dione]: 0.49 µM.

The assay is the same for the next values; noted with them: read-out: EC50 H37Rv_DdnL49P_gfp.
Regarding `Cc1ccc2nc(NC(=O)[C@@H]3C4C=CC(C4)[C@@H]3C(=O)O)sc2c1` (mixture of isomers) [Example 1, 3-[(6-methyl-1,3-benzothiazol-2-yl)carbamoyl]bicyclo[2.2.1]hept-5-ene-2-carboxylic acid], the concentration giving a half-maximal response (EC50) fell in the range of 5 to 10 µM.
In the case of `Cc1ccc2nc(NC(=O)[C@@H]3C4CCC(C4)[C@@H]3C(=O)O)sc2c1` (stereo in doubt) [Example 3, 3-[(6-methyl-1,3-benzothiazol-2-yl)carbamoyl]norbornane-2-carboxylic acid], the EC50 was 1 to 5 µM.
Still for that read-out and setting: to `Cc1ccc2nc(N3C(=O)[C@@H]4[C@H](C3=O)[C@@H]3C=C[C@H]4C3)sc2c1` [Example 2, (1R,2S,6R,7S)-4-(6-methyl-1,3-benzothiazol-2-yl)-4-azatricyclo[5.2.1.02,6]dec-8-ene-3,5-dione] belongs 5 to 10 µM; to `CCOc1ccc2nc(NC(=O)[C@@H]3C4C=CC(C4)[C@@H]3C(=O)O)sc2c1` (stereo partly shown) [Example 7, 3-[(6-ethoxy-1,3-benzothiazol-2-yl)carbamoyl]bicyclo[2.2.1]hept-5-ene-2-carboxylic acid], under 1 µM; to `CCOc1ccc2nc(N3C(=O)[C@@H]4[C@H](C3=O)[C@@H]3C=C[C@H]4C3)sc2c1` [Example 8, (1R,2S,6R,7S)-4-(6-ethoxy-1,3-benzothiazol-2-yl)-4-azatricyclo[5.2.1.02,6]dec-8-ene-3,5-dione], 1 to 5 µM.
Same read-out and setting: to `COc1cc2nc(NC(=O)[C@@H]3C4C=CC(C4)[C@@H]3C(=O)O)sc2cc1OC` (stereo partly shown) [Example 9, 3-[(5,6-dimethoxy-1,3-benzothiazol-2-yl)carbamoyl]bicyclo[2.2.1]hept-5-ene-2-carboxylic acid] belongs 5 to 10 µM.
On the same count and under the same terms, next, `O=C(Nc1nc2cc3c(cc2s1)OCCO3)[C@@H]1C2C=CC(C2)[C@@H]1C(=O)O` (stereo partly shown) [Example 10, 3-(6,7-dihydro-[1,4]dioxino[2,3-f][1,3]benzothiazol-2-ylcarbamoyl) bicyclo[2.2.1]hept-5-ene-2-carboxylic acid]: 10 to 20 µM; `CCc1ccc2nc(NC(=O)[C@@H]3C4C=CC(C4)[C@@H]3C(=O)O)sc2c1` (stereo partly shown) [Example 11, 3-[(6-ethyl-1,3-benzothiazol-2-yl)carbamoyl]bicyclo[2.2.1]hept-5-ene-2-carboxylic acid]: 1 to 5 µM.
As for `CC(C)(C)c1ccc2nc(NC(=O)[C@@H]3C4C=CC(C4)[C@@H]3C(=O)O)sc2c1` (stereo partly shown) [Example 12, 3-[(6-tert-butyl-1,3-benzothiazol-2-yl)carbamoyl]bicyclo[2.2.1]hept-5-ene-2-carboxylic acid], the EC50 was under 1 µM.
Still for that read-out and setting: to `Cc1cc(C)c2nc(NC(=O)[C@@H]3C4C=CC(C4)[C@@H]3C(=O)O)sc2c1` (stereo partly shown) [Example 13, 3-[(4,6-dimethyl-1,3-benzothiazol-2-yl)carbamoyl]bicyclo[2.2.1]hept-5-ene-2-carboxylic acid] belongs 1 to 5 µM; to `Cc1ccc2sc(NC(=O)[C@@H]3C4C=CC(C4)[C@@H]3C(=O)O)nc2c1C` (stereo partly shown) [Example 15, 3-[(4,5-dimethyl-1,3-benzothiazol-2-yl)carbamoyl]bicyclo[2.2.1]hept-5-ene-2-carboxylic acid], 1 to 5 µM.
Same read-out and setting: to `Cc1cccc2sc(NC(=O)[C@@H]3C4C=CC(C4)[C@@H]3C(=O)O)nc12` (stereo partly shown) [Example 16, 3-[(4-methyl-1,3-benzothiazol-2-yl)carbamoyl]bicyclo[2.2.1]hept-5-ene-2-carboxylic acid] belongs 1 to 5 µM.
On the same count and under the same terms, to `O=C(Nc1nc2ccc(Oc3ccccc3)cc2s1)[C@@H]1C2C=CC(C2)[C@@H]1C(=O)O` (stereo partly shown) [Example 17, 3-[(6-phenoxy-1,3-benzothiazol-2-yl)carbamoyl]bicyclo[2.2.1]hept-5-ene-2-carboxylic acid] belongs under 1 µM; to `O=C(Nc1nc2ccc(Oc3ccccc3)cc2s1)[C@@H]1C2C=CC(C2)[C@@H]1C(=O)O` (stereo partly drawn) [Example 18, [2-hydroxy-1,1-bis(hydroxymethyl)ethyl]ammonium: (1R,2S,3R,4S)-3-[(6-phenoxy-1,3-benzothiazol-2-yl)carbamoyl]bicyclo[2.2.1]hept-5-ene-2-carboxylate], under 1 µM; to `O=C1[C@@H]2[C@H](C(=O)N1c1nc3ccc(Oc4ccccc4)cc3s1)[C@@H]1C=C[C@H]2C1` [Example 19, (1R,2S,6R,7S)-4-(6-phenoxy-1,3-benzothiazol-2-yl)-4-azatricyclo[5.2.1.02,6]dec-8-ene-3,5-dione], 1 to 5 µM.
Regarding `O=C(Nc1nc2ccc(Cc3ccccc3)cc2s1)[C@@H]1C2C=CC(C2)[C@@H]1C(=O)O` (stereo partly shown) [Example 20, 3-[(6-benzyl-1,3-benzothiazol-2-yl)carbamoyl]bicyclo[2.2.1]hept-5-ene-2-carboxylic acid], the 50% effective concentration (EC50) is under 1 µM.
The same measure, in the same setting: next, `O=C(Nc1nc2ccc(Oc3ccc(F)cc3)cc2s1)[C@@H]1C2C=CC(C2)[C@@H]1C(=O)O` (stereo partly shown) [Example 21, 3-[[6-(4-fluorophenoxy)-1,3-benzothiazol-2-yl]carbamoyl]bicyclo[2.2.1]hept-5-ene-2-carboxylic acid]: under 1 µM.
The same measure, in the same setting: next, `O=C(Nc1nc2ccc(Oc3ccc(C(F)(F)F)cc3)cc2s1)[C@@H]1C2C=CC(C2)[C@@H]1C(=O)O` (stereo partly shown) [Example 22, 3-[[6-[4-(trifluoromethyl)phenoxy]-1,3-benzothiazol-2-yl]carbamoyl]bicyclo[2.2.1]hept-5-ene-2-carboxylic acid]: 1 to 5 µM; `O=C1[C@@H]2[C@H](C(=O)N1c1nc3ccc(Oc4ccc(C(F)(F)F)cc4)cc3s1)[C@@H]1C=C[C@H]2C1` [Example 23, (1R,2S,6R,7S)-4-[6-[4-(trifluoromethyl)phenoxy]-1,3-benzothiazol-2-yl]-4-azatricyclo[5.2.1.02,6]dec-8-ene-3,5-dione]: 1 to 5 µM.
With `O=C(Nc1nc2ccc(Oc3ccncc3)cc2s1)[C@@H]1C2C=CC(C2)[C@@H]1C(=O)O` (stereo partly shown) [Example 24, 3-[[6-(4-pyridyloxy)-1,3-benzothiazol-2-yl]carbamoyl]bicyclo[2.2.1]hept-5-ene-2-carboxylic acid], the concentration giving a half-maximal response (EC50) was 5 to 10 µM.
The same measure, in the same setting: to `O=C(Nc1nc2ccc(Oc3ncccc3C(F)(F)F)cc2s1)[C@@H]1C2C=CC(C2)[C@@H]1C(=O)O` (stereo partly shown) [Example 25, 3-[[6-[[3-(trifluoromethyl)-2-pyridyl]oxy]-1,3-benzothiazol-2-yl]carbamoyl]bicyclo[2.2.1]hept-5-ene-2-carboxylic acid] belongs 1 to 5 µM; to `O=C1[C@@H]2[C@H](C(=O)N1c1nc3ccc(Oc4ncccc4C(F)(F)F)cc3s1)[C@@H]1C=C[C@H]2C1` [Example 26, (1R,2S,6R,7S)-4-[6-[[3-(trifluoromethyl)-2-pyridyl]oxy]-1,3-benzothiazol-2-yl]-4-azatricyclo[5.2.1.02,6]dec-8-ene-3,5-dione], 1 to 5 µM; to `O=C(Nc1nc2ccc(Oc3cc(C(F)(F)F)ccn3)cc2s1)[C@@H]1C2C=CC(C2)[C@@H]1C(=O)O` (stereo partly shown) [Example 27, 3-[[6-[[4-(trifluoromethyl)-2-pyridyl]oxy]-1,3-benzothiazol-2-yl]carbamoyl]bicyclo[2.2.1]hept-5-ene-2-carboxylic acid], under 1 µM.
The same measure, in the same setting: to `O=C1[C@@H]2[C@H](C(=O)N1c1nc3ccc(Oc4cc(C(F)(F)F)ccn4)cc3s1)[C@@H]1C=C[C@H]2C1` [Example 28, (1R,2S,6R,7S)-4-[6-[[4-(trifluoromethyl)-2-pyridyl]oxy]-1,3-benzothiazol-2-yl]-4-azatricyclo[5.2.1.02,6]dec-8-ene-3,5-dione] belongs under 1 µM; to `Cc1ccnc(Oc2ccc3nc(NC(=O)[C@@H]4C5C=CC(C5)[C@@H]4C(=O)O)sc3c2)c1` (stereo partly shown) [Example 29, 3-[[6-[(4-methyl-2-pyridyl)oxy]-1,3-benzothiazol-2-yl]carbamoyl]bicyclo[2.2.1]hept-5-ene-2-carboxylic acid], under 1 µM; to `Cc1ccnc(Oc2ccc3nc(N4C(=O)[C@@H]5C6C=CC(C6)[C@@H]5C4=O)sc3c2)c1` [Example 30], under 1 µM.
On to `N#Cc1ccnc(Oc2ccc3nc(N4C(=O)[C@@H]5[C@H](C4=O)[C@@H]4C=C[C@H]5C4)sc3c2)c1` [Example 31, 2-[[2-[(1R,2S,6R,7S)-3,5-dioxo-4-azatricyclo[5.2.1.02,6]dec-8-en-4-yl]-1,3-benzothiazol-6-yl]oxy]pyridine-4-carbonitrile], for which the EC50 was in the range of 5 to 10 µM.
Consider `O=C(Nc1nc2ccc(Oc3ccnc(C(F)(F)F)c3)cc2s1)[C@@H]1C2C=CC(C2)[C@@H]1C(=O)O` (stereo partly shown) [Example 32, 3-[[6-[[2-(trifluoromethyl)-4-pyridyl]oxy]-1,3-benzothiazol-2-yl]carbamoyl]bicyclo[2.2.1]hept-5-ene-2-carboxylic acid], for which the EC50 is under 1 µM.
Take `O=C1[C@@H]2[C@H](C(=O)N1c1nc3ccc(Oc4cccc(C(F)(F)F)n4)cc3s1)[C@@H]1C=C[C@H]2C1` [Example 34, (1R,2S,6R,7S)-4-[6-[[6-(trifluoromethyl)-2-pyridyl]oxy]-1,3-benzothiazol-2-yl]-4-azatricyclo[5.2.1.02,6]dec-8-ene-3,5-dione]: the EC50 was in the range of 1 to 5 µM.
The same measure, in the same setting: next, `O=C(Nc1nc2ccc(Oc3ccc(C(F)(F)F)cn3)cc2s1)[C@@H]1C2C=CC(C2)[C@@H]1C(=O)O` (stereo partly shown) [Example 35, 3-[[6-[[5-(trifluoromethyl)-2-pyridyl]oxy]-1,3-benzothiazol-2-yl]carbamoyl]bicyclo[2.2.1]hept-5-ene-2-carboxylic acid]: 1 to 5 µM.
Same read-out and setting: to `O=C1[C@@H]2[C@H](C(=O)N1c1nc3ccc(Oc4ccc(C(F)(F)F)cn4)cc3s1)[C@@H]1C=C[C@H]2C1` [Example 36, (1R,2S,6R,7S)-4-[6-[[5-(trifluoromethyl)-2-pyridyl]oxy]-1,3-benzothiazol-2-yl]-4-azatricyclo[5.2.1.02,6]dec-8-ene-3,5-dione] belongs under 1 µM; to `O=C(Nc1nc2ccc(Oc3ccc(Br)cn3)cc2s1)[C@@H]1C2C=CC(C2)[C@@H]1C(=O)O` (stereo partly shown) [Example 37, 3-[[6-[(5-bromo-2-pyridyl)oxy]-1,3-benzothiazol-2-yl]carbamoyl]bicyclo [2.2.1]hept-5-ene-2-carboxylic acid], 1 to 5 µM.

The record behind these values is patent US20250382273A1 (INSTITUT NATIONAL DE LA SANTE ET DE LA RECHERCHE MEDICALE, priority 2022, published 2025).
